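1) Cells in 96-well plates. 2) Compound, 48 h, 5 concentrations. 3) Linear interpolation between surrounding doses. 4) Unreached endpoint = highest concentration. At the GI50, growth is halved. At the TGI there is no net growth.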
Key:
Assay in all cases: NCI anticancer screen, dose series, 48 h
COLO 205 colon = tested on: COLO 205 colon
UACC-62 melanoma = tested on: UACC-62 melanoma
NCI-H23 lung = tested on: NCI-H23 lung
KM12 colon = tested on: KM12 colon
UO-31 renal = tested on: UO-31 renal
RXF 393 renal = tested on: RXF 393 renal
NCI/ADR-RES ovarian = tested on: NCI/ADR-RES ovarian
SK-MEL-28 melanoma = tested on: SK-MEL-28 melanoma
SNB-19 CNS = tested on: SNB-19 CNS
MDA-MB-231 breast = tested on: MDA-MB-231 breast
786-0 renal = tested on: 786-0 renal
SNB-75 CNS = tested on: SNB-75 CNS
IGROV1 ovarian = tested on: IGROV1 ovarian
RPMI-8226 leukemia = tested on: RPMI-8226 leukemia
HCC-2998 colon = tested on: HCC-2998 colon
HCT-15 colon = tested on: HCT-15 colon
NCI-H226 lung = tested on: NCI-H226 lung
OVCAR-4 ovarian = tested on: OVCAR-4 ovarian
MDA-MB-435 = tested on: MDA-MB-435
NCI-H522 lung = tested on: NCI-H522 lung
HCT-116 colon = tested on: HCT-116 colon
U251 CNS = tested on: U251 CNS
K-562 leukemia = tested on: K-562 leukemia
UACC-257 melanoma = tested on: UACC-257 melanoma
BT-549 breast = tested on: BT-549 breast
MALME-3M melanoma = tested on: MALME-3M melanoma
HS 578T breast = tested on: HS 578T breast
SF-539 CNS = tested on: SF-539 CNS
SK-MEL-2 melanoma = tested on: SK-MEL-2 melanoma
NCI-H460 lung = tested on: NCI-H460 lung
SK-MEL-5 melanoma = tested on: SK-MEL-5 melanoma
HOP-92 NSCLC = tested on: HOP-92 NSCLC
TK-10 renal = tested on: TK-10 renal
SK-OV-3 ovarian = tested on: SK-OV-3 ovarian
T-47D breast = tested on: T-47D breast
HL-60(TB) leukemia = tested on: HL-60(TB) leukemia
SF-295 CNS = tested on: SF-295 CNS
HT29 colon = tested on: HT29 colon
SN12C renal = tested on: SN12C renal
A549 NSCLC = tested on: A549 NSCLC
CCRF-CEM leukemia = tested on: CCRF-CEM leukemia
OVCAR-3 ovarian = tested on: OVCAR-3 ovarian
LOX IMVI melanoma = tested on: LOX IMVI melanoma
ACHN renal = tested on: ACHN renal
SW-620 colon = tested on: SW-620 colon
M14 melanoma = tested on: M14 melanoma
SR leukemia = tested on: SR leukemia
MCF7 breast = tested on: MCF7 breast
EKVX NSCLC = tested on: EKVX NSCLC
OVCAR-5 ovarian = tested on: OVCAR-5 ovarian
DU-145 prostate = tested on: DU-145 prostate
PC-3 prostate = tested on: PC-3 prostate
A498 renal = tested on: A498 renal
CAKI-1 renal = tested on: CAKI-1 renal
SF-268 CNS = tested on: SF-268 CNS
MOLT-4 leukemia = tested on: MOLT-4 leukemia
OVCAR-8 ovarian = tested on: OVCAR-8 ovarian
HOP-62 NSCLC = tested on: HOP-62 NSCLC

For `O=C(CCl)Nc1ccc2c(c1)C(=O)c1ccccc1C2=O`, the GI50 (COLO 205 colon) was 1.48 µM, the TGI (COLO 205 colon) was 3.33 µM and the GI50 (UACC-62 melanoma) was 1.51 µM. It also gave a TGI (UACC-62 melanoma) of 3.17 µM, a GI50 (NCI-H23 lung) of 1.7 µM and a TGI (NCI-H23 lung) of 4.15 µM. It also gave a GI50 (KM12 colon) of 3.03 µM, a TGI (KM12 colon) of 9.34 µM and a GI50 (UO-31 renal) of 1.73 µM. It also gave a TGI (UO-31 renal) of 3.47 µM, a GI50 (RXF 393 renal) of 2 µM and a TGI (RXF 393 renal) of 3.78 µM. For the same compound, the GI50 (NCI/ADR-RES ovarian) was 2.16 µM, the TGI (NCI/ADR-RES ovarian) was 6.56 µM and the GI50 (SK-MEL-28 melanoma) was 3.8 µM. It also gave a TGI (SK-MEL-28 melanoma) of 9.98 µM, a GI50 (SNB-19 CNS) of 2.94 µM and a TGI (SNB-19 CNS) of 11.5 µM. It also gave a GI50 (MDA-MB-231 breast) of 1.65 µM, a TGI (MDA-MB-231 breast) of 4.64 µM and a GI50 (786-0 renal) of 1.67 µM. The TGI (786-0 renal) was 3.56 µM, the GI50 (SNB-75 CNS) was 2.19 µM and the TGI (SNB-75 CNS) was 8.44 µM. The GI50 (IGROV1 ovarian) was 0.99 µM, the TGI (IGROV1 ovarian) was 3.23 µM and the GI50 (RPMI-8226 leukemia) was 2.04 µM. For the same compound, the TGI (RPMI-8226 leukemia) was 5.62 µM, the GI50 (HCC-2998 colon) was 1.86 µM and the TGI (HCC-2998 colon) was 3.65 µM. The GI50 (HCT-15 colon) was 0.73 µM, the TGI (HCT-15 colon) was 2.44 µM and the GI50 (NCI-H226 lung) was 2.39 µM. For the same compound, the TGI (NCI-H226 lung) was 6.76 µM, the GI50 (OVCAR-4 ovarian) was 3.48 µM and the TGI (OVCAR-4 ovarian) was 11.3 µM. It also gave a GI50 (MDA-MB-435) of 2.05 µM, a TGI (MDA-MB-435) of 5.46 µM and a GI50 (NCI-H522 lung) of 0.533 µM. It also gave a TGI (NCI-H522 lung) of 1.22 µM, a GI50 (HCT-116 colon) of 0.79 µM and a TGI (HCT-116 colon) of 2.97 µM. For the same compound, the GI50 (U251 CNS) was 1.86 µM, the TGI (U251 CNS) was 4.11 µM and the GI50 (K-562 leukemia) was 1.03 µM. For the same compound, the TGI (K-562 leukemia) was > 100 µM, the GI50 (UACC-257 melanoma) was 5.59 µM and the TGI (UACC-257 melanoma) was 13.9 µM. It also gave a GI50 (BT-549 breast) of 1.46 µM, a TGI (BT-549 breast) of 3.58 µM and a GI50 (MALME-3M melanoma) of 1.39 µM. For the same compound, the TGI (MALME-3M melanoma) was 3.11 µM, the GI50 (HS 578T breast) was 3.56 µM and the TGI (HS 578T breast) was 20.1 µM. The GI50 (SF-539 CNS) was 2.44 µM, the TGI (SF-539 CNS) was 6.49 µM and the GI50 (SK-MEL-2 melanoma) was 1.58 µM. For the same compound, the TGI (SK-MEL-2 melanoma) was 3.85 µM, the GI50 (NCI-H460 lung) was 2.13 µM and the TGI (NCI-H460 lung) was 5.61 µM. It also gave a GI50 (SK-MEL-5 melanoma) of 1.16 µM, a TGI (SK-MEL-5 melanoma) of 2.42 µM and a GI50 (HOP-92 NSCLC) of 3.72 µM. The TGI (HOP-92 NSCLC) was 9.73 µM, the GI50 (TK-10 renal) was 1.87 µM and the TGI (TK-10 renal) was 3.72 µM. It also gave a GI50 (SK-OV-3 ovarian) of 3.71 µM, a TGI (SK-OV-3 ovarian) of 17 µM and a GI50 (T-47D breast) of 1.11 µM. The TGI (T-47D breast) was 2.87 µM, the GI50 (HL-60(TB) leukemia) was 2.41 µM and the TGI (HL-60(TB) leukemia) was 5.33 µM. It also gave a GI50 (SF-295 CNS) of 2.42 µM, a TGI (SF-295 CNS) of 10.5 µM and a GI50 (HT29 colon) of 1.66 µM. It also gave a TGI (HT29 colon) of 3.8 µM, a GI50 (SN12C renal) of 1.41 µM and a TGI (SN12C renal) of 3.01 µM. For the same compound, the GI50 (A549 NSCLC) was 8.51 µM, the TGI (A549 NSCLC) was 23.5 µM and the GI50 (CCRF-CEM leukemia) was 0.676 µM. For the same compound, the TGI (CCRF-CEM leukemia) was > 100 µM, the GI50 (OVCAR-3 ovarian) was 1.72 µM and the TGI (OVCAR-3 ovarian) was 3.27 µM. For the same compound, the GI50 (LOX IMVI melanoma) was 0.39 µM, the TGI (LOX IMVI melanoma) was 0.994 µM and the GI50 (ACHN renal) was 1.71 µM. The TGI (ACHN renal) was 3.17 µM, the GI50 (SW-620 colon) was 1.43 µM and the TGI (SW-620 colon) was 2.92 µM. It also gave a GI50 (M14 melanoma) of 1.31 µM, a TGI (M14 melanoma) of 2.98 µM and a GI50 (SR leukemia) of 0.0567 µM. The TGI (SR leukemia) was > 100 µM, the GI50 (MCF7 breast) was 1.63 µM and the TGI (MCF7 breast) was 3.64 µM. It also gave a GI50 (EKVX NSCLC) of 2.2 µM, a TGI (EKVX NSCLC) of 6.35 µM and a GI50 (OVCAR-5 ovarian) of 2.5 µM. The TGI (OVCAR-5 ovarian) was 6.89 µM, the GI50 (DU-145 prostate) was 1.8 µM and the TGI (DU-145 prostate) was 3.36 µM. The GI50 (PC-3 prostate) was 2.77 µM, the TGI (PC-3 prostate) was 11.6 µM and the GI50 (A498 renal) was 12.2 µM. The TGI (A498 renal) was 25.8 µM, the GI50 (CAKI-1 renal) was 1.59 µM and the TGI (CAKI-1 renal) was 2.96 µM. The GI50 (SF-268 CNS) was 1.79 µM, the TGI (SF-268 CNS) was 4.59 µM and the GI50 (MOLT-4 leukemia) was 2.24 µM. The TGI (MOLT-4 leukemia) was > 100 µM, the GI50 (OVCAR-8 ovarian) was 2.35 µM and the TGI (OVCAR-8 ovarian) was 6.35 µM. It also gave a GI50 (HOP-62 NSCLC) of 2.98 µM and a TGI (HOP-62 NSCLC) of 8.5 µM.

— PubChem BioAssay (NCI)
